Data from patent US8952054B2, “Small molecule inhibitors of MUC1 and methods of identifying the same” (Dana-Farber Cancer Institute, Inc., priority 2010, dated 2015).
“Also recorded” adds a separate entry of the source.

Experiments:
[1] = target: T1, GFP-MUC1-CD and Flag-MUC1-CD (Homo sapiens, UniProt P15941); assay: Inhibition of dimerization of MUC1-CD in cyto (coprecipitation in transfected 293 cells); assay type: cell-based; details: for formation of MUC1-CD dimers (anti-Flag precipitates, anti-GFP blot): 75 μM for 3 days
T1 construct: expressed in transfected cells; host or cells: HEK 293 cells (no endogenous MUC1)
T1 sequence (P15941 1184-1255 limits assumed): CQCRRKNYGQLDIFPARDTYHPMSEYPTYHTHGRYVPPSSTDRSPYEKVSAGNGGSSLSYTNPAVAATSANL
Procedure: (§1) FIGS. 1A-D. MUC1/CQC peptide blocks MUC1 oligomerization. (FIG. 1A) Schematic representation of the MUC1-C subunit and the 72-amino acid sequence of MUC1-CD (SEQ ID NO: 1) are shown. The N-terminal 15 amino acids (shaded sequence) MUC1/CQC (SEQ ID NO: 10) and mutated MUC1/AQA (SEQ ID NO: 11) peptides were synthesized with the poly-dArg transduction domain. (FIG. 1B) His-MUC1-CD (1.4 mg/ml) was immobilized on a sensor chip in a BIAcore. MUC1/CQC was injected over the chip at 10 μM. Raw binding data were analyzed by BIAevaluation software version 3.0 and fit to a 1:1 Languir binding model. (FIG. 1C) Purified His-MUC1-CD (1.5 mg/ml) was incubated with PBS, 200 μM MUC1/CQC or 200 μM MUC1/AQA for 1 h at room temperature. The proteins were separated in a non-reducing SDS-polyacrylamide gel and analyzed by immunoblotting with anti-MUC1-C. (FIG. 1D) 293 cells were transiently transfected to express an empty vector or GFP-MUC1-CD and Flag-MUC1-CD. At 48 h after transfection, the cells were treated with 5 μM MUC1/CQC or MUC1/AQA for 3 d. The cells were then harvested for immunoblotting with anti-MUC1-C (left panel). Whole cell lysates were also precipitated with anti-Flag and the precipitates were immunoblotted with the indicated antibodies (right panels).
FIG. 8—293 cells transiently transfected to express an empty vector or GFP-MUC1-CD and Flag-MUC1-CD. At 48 he after transfection, cells were left untreated (control), or treated with 5 μmol/L GO-201 or CP-1 each day for 3 days. The cells were then harvested for immunoblotting with anti-MUC1-C (left). Whole-cell lysates were also precipitated with anti-Flag and the precipitates were immunoblotted with the indicated antibodies (right).
(§2) FIGS. 12A-D—Apigenin is an inhibitor of MUC1-CD dimerization in vitro and in cells. (FIG. 12A) Structures of apigenin and its analogue baicalein. Using the in vitro screening assay, dimerization of MUC1-CD was assessed in the presence of 100 μM apigenin or 100 μM baicalein each dissolved in 0.1% DMSO. The results (mean±SD of 3 determinations) are expressed as percentage of control dimerization in the presence of DMSO alone. (FIG. 12B) MUC1-CD dimerization was assessed in the presence of the indicated concentrations of apigenin in the in vitro screening assay. […] (FIG. 12C) Soluble MUC1-CD was incubated in the presence of 1% DMSO, 1 mM apigenin or 1 mM baicalein for 1 h at room temperature. Monomers and dimmers were assessed by electrophoresis in a non-reducing gel and immunoblotting with anti-MUC1-C. (FIG. 12D) 293 cells were transiently transfected to express an empty vector or GFP-MUC1-CD and Flag-MUC1-CD. At six hours after transfection, the cells were left untreated, and treated with 75 μM apigenin or baicalein for 3 days. Whole-cell lysates were precipitated with anti-Flag, and the precipitates were immunoblotted with the indicated antibodies.
Two different versions of MUC1-CD vectors have been generated for transformation of cells: GFP-MUC1-CD and Flag-MUC1-CD. […] At 48 hr post-transfection, cells are incubated with the selected compounds from the primary and/or secondary screening assays. Cells are then harvested and used for immunoblotting with anti-MUC1-C. Total cell lysates are subjected to immunoprecipitation with anti-GFP antibody and the adsorbates are analyzed by immunoblotting with anti-Flag antibody.
293 cells were transfected with vectors expressing GFP, GFP-MUC1-CD or Flag-MUC1-CD in the presence of Lipofectamine as described (Leng et al., 2007).
The inventors generated two different versions of MUC1-CD vectors for transfecting into cells: GFP-MUC1-CD and Flag-MUC1-CD. […] At 48 hours post-transfection, cells are incubated with selected compounds. The cells were harvested for immunoblotting with anti-MUC1-C. Total cell lysates are subjected to immunoprecipitation with anti-GFP antibody and the adsorbates are analyzed by immunoblotting with anti-Flag antibody. An inhibitor of MUC1-CD dimerization will inhibit dimerization of MUC1-CD in cyto. […]

His-MUC1-CD = target: T2, His-MUC1-CD (Homo sapiens, UniProt P15941); assay: In-gel in vitro MUC1-CD dimerization/oligomerization assay (non-reducing SDS-PAGE, anti-MUC1-C immunoblot); assay type: biochemical; details: 1 h at room temperature; for formation of MUC1-CD dimers, soluble protein: 1 mM compound
T2 construct: made in house
T2 sequence (P15941 1184-1255): T1 sequence (P15941 1184-1255 limits assumed)
Procedure: as §1
FIG. 7—GO-201 blocks MUC1 oligomerization. Purified His-MUC1-CD was incubated with PBS (control), GO-201, or CP-1 for 1 hr at room temperature. The proteins were separated in a non-reducing SDS-polyacrylamide gel (SDS-PAGE) and analyzed by immunoblotting with anti-MUC1-C antibodies. The formation of dimers and tetramers was inhibited by incubation with GO-201.
as §2, with “At six hours after transfection, the cells were left untreated, and treated with 75 μM apigenin or baicalein for 3 days. Whole-cell lysates were precipitated with anti-Flag, and the precipitates were immunoblotted with the indicated antibodies.” left out
(§3) Purified His-tagged MUC1-CD protein also forms dimers and oligomers when incubated in a buffer in vitro, and these can be detected by electrophoresis in polyacrylamide gels. […] Following extensive washings, the proteins are separated in a non-reducing SDS-polyacrylamide gel and analyzed by immunoblotting with anti-MUC1-CD antibody.
As a positive control for validation of this assay for secondary screening, purified His-MUC1-CD is incubated with either PBS or with GO-201 (CQC peptide) for 1 hr at room temperature. The proteins are separated in a non-reducing SDS-polyacrylamide gel and analyzed by immunoblotting with anti-MUC1-CD antibody.
as §3, with “protein” for “protein also”, “as” for “and these can be”, “antibody. […]” for “antibody.”

[2] = transfected 293 cells, 5 μM peptide for 3 d

| Compound | formation of MUC1-CD dimers (anti-Flag precipitates, anti-GFP blot) ([1]; transfected 293 cells) | formation of MUC1-CD dimers, soluble protein (His-MUC1-CD) | interaction between Flag-MUC1-CD and GFP-MUC1-CD [1, 2] | interaction between Flag-MUC1-CD and GFP-MUC1-CD ([1]; transfected HEK 293 cells, 5 μM GO-201 or CP-1 each day for 3 days) | interaction between Flag-MUC1-CD and GFP-MUC1-CD ([1]; transfected HEK 293 cells, 5 mM GO-201 as printed) | His-MUC1-CD oligomer formation (His-MUC1-CD; 200 μM peptide) | His-MUC1-CD oligomer formation (His-MUC1-CD; GO-201 positive control) |
| --- | --- | --- | --- | --- | --- | --- | --- |
| O=c1cc(-c2ccccc2)oc2cc(O)c(O)c(O)c12 [Baicalein, 5,6,7-trihydroxyflavone, reference compound] | not | little effect | – | – | – | – | – |
| O=c1cc(-c2ccc(O)cc2)oc2cc(O)cc(O)c12 [Apigenin, 4′,5,7-trihydroxyflavone] | completely blocked | completely blocked | – | – | – | – | – |
| CC[C@H](C)[C@H](NC(=O)[C@H](CC(=O)O)NC(=O)[C@H](CC(C)C)NC(=O)[C@H](CCC(N)=O)NC(=O)CNC(=O)[C@H](Cc1ccc(O)cc1)NC(=O)[C@H](CC(N)=O)NC(=O)[C@H](CCCCN)NC(=O)[C@H](CCCNC(=N)N)NC(=O)[C@H](CCCNC(=N)N)NC(=O)[C@H](CS)NC(=O)[C@H](CCC(N)=O)NC(=O)[C@H](CS)NC(=O)[C@@H](CCCNC(=N)N)NC(=O)[C@@H](CCCNC(=N)N)NC(=O)[C@@H](CCCNC(=N)N)NC(=O)[C@@H](CCCNC(=N)N)NC(=O)[C@@H](CCCNC(=N)N)NC(=O)[C@@H](CCCNC(=N)N)NC(=O)[C@@H](CCCNC(=N)N)NC(=O)[C@@H](CCCNC(=N)N)NC(=O)[C@H](N)CCCNC(=N)N)C(=O)N[C@@H](Cc1ccccc1)C(=O)N1CCC[C@H]1C(=O)O [MUC1/CQC] | – | – | disruption of the interaction | disruption of the interaction | disruption of the interaction | substantially decreased oligomer formation | substantially decreases oligomer formation; also recorded: inhibited |
| MUC1/AQA: control peptide in which the CQC motif was altered to AQA (SEQ ID NO: 11) (AQARRKNYGQLDIFP) [reference compound] | – | – | no apparent effect | – | – | little if any effect | – |
